How the values were obtained:
[1] = system: PARP1 in RPE1-hTERT cells; experiment: PARP1 off-target assay: H2O2-induced ADP-ribosylation; format: cell-based; settings: RL6 1, 10 and 50 μM; olaparib 10 μM; 600 μM H2O2 for 10 min
Protocol: After 1 h of pretreatment, the cells were treated with 600 μM H2O2 (Sigma) in PBS for 10 min at 37 °C. Cells were lysed in preheated Laemmli buffer devoid of beta-mercaptoethanol and bromophenol blue, and the lysates were boiled for 15 min. Protein concentration was determined using a BCA protein quantification kit (Pierce) and normalized. Beta-mercaptoethanol and bromophenol blue were then added, and the lysates were boiled again for 15 min. Proteins were separated in a 10% SDS-PAGE gel and then transferred to nitrocellulose membranes (Bio-Rad). […] Membranes were incubated with ECL Prime (Amersham), and the signals were detected using a Chemidoc MP Imaging System (Bio-Rad). […] Signals were quantified using ImageJ software.
(C) ADP-ribosylation in RPE1-hTERT cells was
triggered by H2O2 (600 µM) for 10 min. (D) Gel densitometry quantified by ImageJ
software, n=3. A concentration of 0.1% DMSO was used.

MSU-induced paw edema = experiment: MSU-induced paw edema, intraperitoneal treatment; format: in vivo; settings: for effect on paw edema over time: i.p. 30 min before MSU, mefenamic acid 30 mg/kg, RL6 3, 10, 30, RL7 0.3, 3, 30, ZINC9089086 3, 10, 30 mg/kg, 6 h
Protocol: MSU-induced edema was performed as previously described.[22] The compounds were prepared by dilution in a solution containing 0.5% Tween 80 and 5% DMSO and then resuspended in PBS prior to administration. The animals were treated intraperitoneally (i.p.) with the following substances: vehicle (VEH: 5% DMSO; 0.5% Tween 80 in PBS), mefenamic acid (a nonsteroidal anti-inflammatory drug at a dosage of 30 mg/kg), RL6 (at doses of 3, 10, and 30 mg/kg), RL7 (at doses of 0.3, 3, and 30 mg/kg), or ZINC9089086 (at doses of 3, 10, and 30 mg/kg).[31] After 30 min, the mice were anesthetized using inhaled isoflurane (2% v/v in O2). A hypodermic syringe with a 31-gauge needle (BD, Franklin Lakes, NJ, USA) was used to administer the vehicle (VEH: PBS, 30 μL) or MSU (1.5 mg/30 μL) via the intraplantar route (i.pl.), into the right hind paw (Figure 9).
Paw volume (mL) was measured at various time points, including before injection (baseline, B), […] 1, 2, 3, 4, 5, and 6 h following MSU injection using a plethysmometer (Ugo Basile, Comerio, Italy) (Figure 7). For this, the injected hind paw was immersed into the dipping solution (6 mM NaCl diluted in distilled water and added with 2 mL/L of a wetting compound provided by the manufacturer) until the ankle. The extent of edema was quantified as a change in paw volume (Δ mL) by subtracting the basal paw volume from the volume of the paw measured at each time point. To evaluate the antiedematogenic effect of orally administered MPO inhibitors (p.o.), the animals were fasted for 1 h and then treated with equimolar doses of the following substances: vehicle (VEH: 5% DMSO; 0.5% tween 80 in PBS), mefenamic acid (30 mg/kg), RL 6 (33 mg/kg), RL 7 (54 mg/kg), RL 21 (30 mg/kg), or ZINC9089086 (34 mg/kg). After 1 h, the anesthetized mice (2% isoflurane, v/v in O2) received either the vehicle (PBS, 30 μL, i.pl.) or 1.5 mg/30 μL MSU (i.pl.). The paw volume was evaluated at the same time points as previously described. The percentage of edema inhibition by the compounds was calculated discounting the paw volume of mice that received oral or intraperitoneal vehicle and PBS intraplantar (VEH + VEH).

Human leukocyte MPO = Human leukocyte MPO (Homo sapiens, UniProt P05164); experiment: Reversibility test (residual peroxidase activity after 200-fold dilution); format: biochemical; parameters: Human leukocyte MPO (EC 1.7.1.11) was purchased from Planta Natural Products; purchased Planta Natural Products (Vienna, Austria); host or cells: human leukocytes; settings: 100 nM MPO, 20 μM inhibitor, 30 min, then 200-fold dilution
Protocol: Reversibility of the inhibition was analyzed by peroxidase residual activity.[77] […] After incubation, the system was diluted 200-fold using acetate buffer ([…], pH 5.4) in the presence of TMB (2 mM dissolved in 10% dimethylformamide). After a new hydrogen peroxide addition (2 μM), the oxidation of TMB was quantified at 655 nm.

[2] = Taurine chloroamine scavenger assay; settings: 15 min at 37 °C, TMB readout
Protocol: Taurine chloramine was prepared by mixing hypochlorous acid (2.81 mM) with taurine (5 mM), cetyltrimethylammonium chloride (0.03%), NaCl (140 mM), and diethylenetriaminepentaacetic acid (100 μM) in phosphate buffer (20 mM, pH 7.4). The system was kept at 37 °C for 5 min for complete chloramine taurine formation. The compounds were added to this mixture and incubated for 15 min at 37 °C. Taurine chloramine was quantified by the oxidation of TMB (2 mM) catalyzed by iodide (100 μM).[33]

dHL-60 cells = experiment: Cellular production of HOCl, PMA-activated dHL-60 cells; format: cell-based, human; settings: 20 μM compound, 100 nM PMA, 1 h
Protocol: Human promyelocytic leukemic cells (HL-60) (BCRJ, RJ, Brazil) were cultivated in RPMI with fetal bovine serum (10%), penicillin (62 μg/mL), and streptomycin (100 μg/mL) at 37 °C in 5% CO2 atmosphere. HL-60 cells were differentiated to neutrophil-like (dHL-60) by DMSO (1.25%) during 4 days.[25]
Measurement of HOCl production by 1 × 10^6 dHL-60 or neutrophils was carried out in PBS (10 mM Na2HPO4, 2 mM KH2PO4, 0.5 mM MgCl2, 1 mM CaCl2, 140 mM NaCl, 5.5 mM dextrose, 100 μM diethylenetriaminepentaacetic acid, 5 mM taurine) in the presence of the compounds (20 μM in 0.3% DMSO) or 0.3% DMSO (control). Cells were activated with phorbol myristate acetate (100 nM) at 37 °C for 1 h. After incubation, cells were centrifuged at 1400 rpm for 10 min, and the supernatant was diluted threefold. Finally, 240 μL of this supernatant was added to 60 μL acetate buffer (400 mM, pH 5.4) containing NaI (100 μM) and TMB (2 mM in DMFO 10%). Taurine chloramine was quantified by TMB oxidation at 655 nm.[33] Inhibition of HOCl production was calculated as the percentage of the control (vehicle).

[3] = Stopped-flow reaction of compound with HOCl (fluorescence decay); settings: 20 μM compound, 250 μM HOCl, up to 1 s
Protocol: The fast oxidation of RL7 was monitored in a stopped-flow spectrophotometer (Applied Photophysics SX20) using the intrinsic RL7 fluorescence (λex = 306 nm and λem = above 340 nm). The reaction of RL7 (20 μM in 0.3% DMSO) with HOCl (250 μM) was performed in phosphate buffer (20 mM, pH 7.4), diethylenetriaminepentaacetic acid (100 μM), and NaCl (140 mM). Data were obtained within 1 s.

Human leukocyte MPO, sequence (P05164 279-745 limits assumed): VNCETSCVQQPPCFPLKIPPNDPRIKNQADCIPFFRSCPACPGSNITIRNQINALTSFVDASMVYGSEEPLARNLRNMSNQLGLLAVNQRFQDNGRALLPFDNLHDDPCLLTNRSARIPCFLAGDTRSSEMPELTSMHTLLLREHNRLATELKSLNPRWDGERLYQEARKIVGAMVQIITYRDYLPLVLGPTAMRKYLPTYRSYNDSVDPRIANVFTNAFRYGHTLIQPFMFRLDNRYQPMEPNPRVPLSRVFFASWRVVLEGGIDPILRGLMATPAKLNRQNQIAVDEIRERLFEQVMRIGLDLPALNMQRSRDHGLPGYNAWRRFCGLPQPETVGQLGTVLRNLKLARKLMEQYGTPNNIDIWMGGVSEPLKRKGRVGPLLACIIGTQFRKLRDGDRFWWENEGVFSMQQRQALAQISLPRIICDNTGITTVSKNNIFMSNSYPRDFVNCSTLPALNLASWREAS
Human leukocyte MPO, sequence (P05164 165-278 limits assumed): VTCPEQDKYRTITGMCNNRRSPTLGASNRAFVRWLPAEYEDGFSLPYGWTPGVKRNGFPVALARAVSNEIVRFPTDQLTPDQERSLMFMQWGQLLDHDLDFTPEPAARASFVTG

Structure (SMILES) | inhibition of H2O2-induced ADP-ribosylation [1] | reduction of paw edema (time-dependent AUC) vs VEH + MSU (MSU-induced paw edema; 10 mg/kg i.p.) | reduction of paw edema (time-dependent AUC) vs VEH + MSU (MSU-induced paw edema; 30 mg/kg i.p.) | acute toxicity observed in mice (MSU-induced paw edema; during the in vivo tests) | effect on paw edema over time (MSU-induced paw edema) | reversibility of MPO inhibition (residual peroxidase activity) (Human leukocyte MPO) | scavenger activity toward taurine chloramine [2] | inhibition of HOCl production in dHL-60 cells (dHL-60 cells) | reduction of paw edema (time-dependent AUC) vs VEH + MSU (MSU-induced paw edema; 3 mg/kg i.p.) | reaction with HOCl (fluorescence decay) [3]
Nc1cc2c3c(cccc3c1)C(=O)N(N)C2=O [RL6] | failed to inhibit | 80.4% | 83.2% | no sign of acute toxicity | significantly prevented paw edema | reversible inhibition | did not scavenge taurine chloramine | significantly inhibited |  | 
CN1CCc2nc3sc(C(=O)Nc4cccc(C#N)c4)c(N)c3cc2C1 [RL7] |  |  | 90.2% |  | inhibited paw edema at all of the tested doses |  | did not scavenge the milder oxidant taurine chloroamine | significantly inhibited | 82.8% | rapidly reacts with HOCl

Reference: publication PMC11284790, “Targeting Myeloperoxidase Ameliorates Gouty Arthritis: A Virtual Screening Success Story” (Journal of Medicinal Chemistry, 2024)
